Results reported in BindingDB's records for doi:10.1021/acs.biochem.6b01308 (Johns Hopkins University, 2017).

Key:
[1] = biological target: T1, Iodotyrosine deiodinase [1-228] (Haliscomenobacter hydrossis, UniProt F4KU78); test: IYD Binding Assay
T1 construct: 1-228
T1 sequence (F4KU78 whole entry): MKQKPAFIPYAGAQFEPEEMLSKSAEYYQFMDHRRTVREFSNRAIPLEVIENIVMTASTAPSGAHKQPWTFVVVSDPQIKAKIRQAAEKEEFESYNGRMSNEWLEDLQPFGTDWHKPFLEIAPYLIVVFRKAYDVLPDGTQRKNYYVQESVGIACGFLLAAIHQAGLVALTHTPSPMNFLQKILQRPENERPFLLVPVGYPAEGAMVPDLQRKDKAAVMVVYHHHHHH
Experimental: (§1) Dissociation constants (Kd) for the ligands of IYD were determined by their ability to quench the fluorescence of the oxidized FMN (FMNox) (λex 450 nm, λem 523 nm) in the active site of IYD as previously described [Hu et al., J. Biol. Chem., 290:590-600; McTamney et al., J. Am. Chem. Soc., 131:14212-14213].

[2] = biological target: T2, Iodotyrosine deiodinase 1 [1-1,32-289] (Homo sapiens, UniProt Q6PHW0); test: IYD Binding Assay
T2 construct: 1-1,32-289
T2 sequence (Q6PHW0 whole entry): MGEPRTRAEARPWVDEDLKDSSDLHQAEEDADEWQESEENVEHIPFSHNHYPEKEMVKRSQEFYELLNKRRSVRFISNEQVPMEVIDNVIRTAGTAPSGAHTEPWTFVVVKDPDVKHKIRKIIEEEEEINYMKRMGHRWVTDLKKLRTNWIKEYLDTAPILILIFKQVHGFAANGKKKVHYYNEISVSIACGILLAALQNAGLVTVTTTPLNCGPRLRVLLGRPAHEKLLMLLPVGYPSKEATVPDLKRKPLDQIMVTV
Experimental: as §1

Row | SMILES | Kd [1] [µM] | Kd [2] [µM]
1 | N[C@@H](Cc1ccc(O)c(I)c1)C(=O)O | 8.2 | 0.09
2 | Oc1ccccc1I [2-Iodophenol (2IP)] | 67 | 1410
3 | Nc1ccc(O)c(I)c1 [4-Amino-2-iodophenol (4A2IP)] | 96 | –
4 | N#Cc1ccc(O)c(I)c1 [4-Cyano-2-iodophenol (2IPCN)] | 1.44 | –
5 | O=C(O)c1ccc(O)c(I)c1 [4-Hydroxy-3-iodobenzoic acid (2IPCOOH)] | 24.1 | –
